The results in this text go back to patent US20180057505A1, “BICYCLIC HETEROARYL COMPOUNDS USEFUL AS INHIBITORS OF THE PAR-2 SIGNALING PATHWAY” (VERTEX PHARMACEUTICALS INCORPORATED, priority 2015, published 2018).

Holding throughout (assay type): cell-based
For experiment [1], the target named is T1, PAR2 (HT-29 cells) (Homo sapiens, UniProt P55085).
T1 construct: host or cells: HT-29
T1 sequence (P55085 26-397): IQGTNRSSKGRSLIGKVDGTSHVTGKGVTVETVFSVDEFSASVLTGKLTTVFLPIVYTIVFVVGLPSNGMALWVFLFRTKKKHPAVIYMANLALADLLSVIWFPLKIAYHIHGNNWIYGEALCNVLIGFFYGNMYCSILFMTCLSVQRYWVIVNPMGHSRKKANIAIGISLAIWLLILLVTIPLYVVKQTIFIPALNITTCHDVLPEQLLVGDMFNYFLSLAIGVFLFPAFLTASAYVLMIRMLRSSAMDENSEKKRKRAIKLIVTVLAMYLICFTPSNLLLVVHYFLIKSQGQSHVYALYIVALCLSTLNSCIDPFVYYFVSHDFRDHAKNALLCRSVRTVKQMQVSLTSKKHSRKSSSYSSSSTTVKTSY
The experiment in a line: Ca FLIPR TETRA assay, ANTAGONIST mode, activator 8 μM SLIGKV. The note with it: HT-29 cells; activator 8 μM SLIGKV; Method A: maximal concentration of antagonist 0.1, 1 or 2 μM. Put shortly:
(§1)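 Fluorescent Ca2+ dye (calcium 5) loading of overnight-plated HT-29 cells preceded compound addition and a 30 min room-temperature incubation. Responses to the specified activator concentration were then read by FLIPR Tetra in the same plate.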

For experiment [2], the target named is T1, PAR2 (HT-29 cells). The experiment in a line: Ca FLIPR TETRA assay, ANTAGONIST mode, activator 3.1 U/mL trypsin. The note with it: HT-29 cells; activator 3.1 U/mL trypsin; Method A: maximal concentration of antagonist 0.1, 1 or 2 μM. Put shortly:
as §1

The subject of experiment [3] is Thrombin-stimulated Ca2+ response in HT-29 cells. The experiment in a line: Ca FLIPR TETRA assay, ANTAGONIST mode, activator 1 U/mL Thrombin. To be noted: HT-29 cells, activator 1 U/mL Thrombin. The method, boiled down:
as §1

In experiment [4] the test system is UTP-stimulated Ca2+ response in HT-29 cells. The experiment in a line: Ca FLIPR TETRA assay, ANTAGONIST mode, activator 0.6 μM UTP. To be noted: HT-29 cells, activator 0.6 μM UTP. The method, boiled down: as §1

The structures appear in SMILES notation.

In general, IC50 refers to the point on the concentration scale where inhibition reaches its midpoint. As to `CC(C)(C)c1cc(-c2ccc(Cl)cc2)nc2cc(C(=O)N3CCC(c4ncc(C(=O)O)cn4)CC3(C)C)oc12` (stereo not shown) [Example I-429], the IC50 is 0.4 nM at PAR2 (HT-29 cells) [1], 0.5 nM at PAR2 (HT-29 cells) [2], 400 nM in experiment [3] and 440 nM in experiment [4].

With `Cc1oc(C2CCN(C(=O)c3cc4nc(-c5ccc(Cl)c(F)c5)cc(C(C)(C)C)c4o3)C(C)(C)C2)nc1C(=O)O` (stereo not shown) [Example I-430], the IC50 on PAR2 (HT-29 cells) [1] is 0.6 nM; on PAR2 (HT-29 cells) [2], 0.9 nM; in experiment [3], above 2000 nM; in experiment [4], above 2000 nM.

With `Cc1oc(C2CCN(C(=O)c3cc4nc(-c5ccc(Cl)cc5)cc(C(C)(C)C)c4o3)C(C)(C)C2)nc1C(=O)O` (stereo not shown) [Example I-431], the IC50 at PAR2 (HT-29 cells) [1] was 0.7 nM; on PAR2 (HT-29 cells) [2], 0.9 nM; in experiment [3] it was above 2000 nM; in experiment [4] it was above 2000 nM.

As to `CC(C)(C)c1cc(-c2ccc(Cl)c(F)c2)nc2cc(C(=O)N3CCC(CC(=O)NC#N)CC3(C)C)oc12` (stereo not shown) [Example I-432], the half-inhibitory concentration (IC50) at PAR2 (HT-29 cells) [1] turned out to be 0.2 nM; at PAR2 (HT-29 cells) [2], 0.3 nM; in experiment [3] (Homo sapiens), 1100 nM; in experiment [4] (Homo sapiens), 970 nM.

Turning to `CC(C)(C)c1cc(-c2ccc(Cl)c(F)c2)nc2cc(C(=O)N3CCC(CC(=O)NS(=O)(=O)C(F)(F)F)CC3(C)C)oc12` (stereo not shown) [Example I-433], the IC50 was 2.7 nM at PAR2 (HT-29 cells) [1], 3.4 nM on PAR2 (HT-29 cells) [2], above 2000 nM in experiment [3] (Homo sapiens) and above 2000 nM in experiment [4] (Homo sapiens).

In the case of `CC(C)(C)c1cc(N2CCC[C@H]2C(F)(F)F)nc2cc(C(=O)N3CCN(C(=O)[C@H]4C[C@](C)(O)C4)CC3(C)C)oc12` [Example I-434], the half-maximal inhibitory concentration (IC50) at PAR2 (HT-29 cells) [1] was 26 nM; at PAR2 (HT-29 cells) [2] it was 75 nM; in experiment [3] (Homo sapiens) it was above 2000 nM; in experiment [4] (Homo sapiens), above 2000 nM.

For the molecule `CC(C)(C)c1cc(N2CCC3(CC2)CC3)nc2cc(C(=O)N3CCN(C(=O)[C@H]4C[C@@](C)(O)C4)CC3(C)C)oc12` [Example I-435], the IC50 on PAR2 (HT-29 cells) [1] is 1.6 nM; on PAR2 (HT-29 cells) [2], 3.8 nM; in experiment [3] (Homo sapiens), above 2000 nM; in experiment [4] (Homo sapiens), above 2000 nM.

Regarding `CC(C)(C)c1cc(N2CCC(C(F)(F)F)CC2)nc2cc(C(=O)N3CCN(C(=O)[C@H]4C[C@](C)(O)C4)CC3(C)C)oc12` [Example I-437], the IC50 at PAR2 (HT-29 cells) [1] is 6.4 nM; on PAR2 (HT-29 cells) [2] it was 7.8 nM; in experiment [3] (Homo sapiens), above 2000 nM; in experiment [4] (Homo sapiens), above 2000 nM.

For `CC(C)(C)c1cc(N2CCC(C#N)CC2)nc2cc(C(=O)N3CCN(C(=O)[C@H]4C[C@](C)(O)C4)CC3(C)C)oc12` [Example I-438], the IC50 on PAR2 (HT-29 cells) [1] is 320 nM; at PAR2 (HT-29 cells) [2] it was 420 nM; in experiment [3] (Homo sapiens), above 2000 nM; in experiment [4] (Homo sapiens), above 2000 nM.

Turning to `CC1(O)CC(C(=O)N2CCN(C(=O)c3cc4nc(N5CCC(F)(F)C5)cc(C(C)(C)C)c4o3)C(C)(C)C2)C1` (stereo not shown) [Example I-439], the IC50 on PAR2 (HT-29 cells) [1] is 78 nM; at PAR2 (HT-29 cells) [2], 96 nM; in experiment [3] (Homo sapiens) it was above 2000 nM; in experiment [4] (Homo sapiens) it was above 2000 nM.

In the case of `CC(C)(C)c1cc(N2CCC[C@@H]2C(F)(F)F)nc2cc(C(=O)N3CCN(C(=O)[C@H]4C[C@](C)(O)C4)CC3(C)C)oc12` [Example I-440], the IC50 on PAR2 (HT-29 cells) [1] was 520 nM; at PAR2 (HT-29 cells) [2], 640 nM; in experiment [3] (Homo sapiens) it was above 2000 nM; in experiment [4] (Homo sapiens), above 2000 nM.

Turning to `CC(C)(C)c1cc(N2CC3(C2)CC(F)(F)C3)nc2cc(C(=O)N3CCN(C(=O)[C@H]4C[C@](C)(O)C4)CC3(C)C)oc12` [Example I-441], the IC50 on PAR2 (HT-29 cells) [1] was 76 nM; at PAR2 (HT-29 cells) [2], 130 nM; in experiment [3] (Homo sapiens) it was above 2000 nM; in experiment [4] (Homo sapiens), above 2000 nM.

For the molecule `CC(C)(C)c1cc(N2CCC(C(C)(C)O)CC2)nc2cc(C(=O)N3CCN(C(=O)[C@H]4C[C@](C)(O)C4)CC3(C)C)oc12` [Example I-442], the IC50 (at PAR2 (HT-29 cells) [1]; at PAR2 (HT-29 cells) [2]; in experiment [3] (Homo sapiens); in experiment [4] (Homo sapiens)) was above 2000 nM throughout.

With `CC(C)(C)c1cc(C2CC3(CCC3)C2)nc2cc(C(=O)N3CCN(c4ccc(C(=O)O)cn4)CC3(C)C)oc12` [Example I-443], the IC50 was 0.5 nM on PAR2 (HT-29 cells) [1], 0.6 nM on PAR2 (HT-29 cells) [2], above 2000 nM in experiment [3] (Homo sapiens) and 1600 nM in experiment [4] (Homo sapiens).

Consider `CC(C)(C)c1cc(C2CC3(CCC3)C2)nc2cc(C(=O)N3CCN(C(=O)[C@@H]4CNCCO4)CC3(C)C)oc12` [Example I-444], for which the IC50 at PAR2 (HT-29 cells) [1] is 65 nM; at PAR2 (HT-29 cells) [2], 76 nM; in experiment [3] (Homo sapiens), above 2000 nM; in experiment [4] (Homo sapiens), above 2000 nM.

As for `CC(C)(C)c1cc(C2CC3(CCC3)C2)nc2cc(C(=O)N3CCN(C(=O)[C@H]4CNCCO4)CC3(C)C)oc12` [Example I-445], the half-maximal inhibitory concentration (IC50) at PAR2 (HT-29 cells) [1] was 260 nM; on PAR2 (HT-29 cells) [2], 260 nM; in experiment [3] (Homo sapiens), above 2000 nM; in experiment [4] (Homo sapiens), above 2000 nM.

With `CC(C)(C)c1cc(C2CC3(CCC3)C2)nc2cc(C(=O)N3CCN(C(=O)[C@H]4COCCN4)CC3(C)C)oc12` [Example I-446], the half-maximal inhibitory concentration (IC50) on PAR2 (HT-29 cells) [1] is 106 nM; on PAR2 (HT-29 cells) [2], 130 nM; in experiment [3] (Homo sapiens), above 2000 nM; in experiment [4] (Homo sapiens), above 2000 nM.

As for `CC(C)(C)c1cc(C2CC3(CCC3)C2)nc2cc(C(=O)N3CCN(C(=O)[C@@H]4COCCN4)CC3(C)C)oc12` [Example I-447], the half-inhibitory concentration (IC50) is 460 nM at PAR2 (HT-29 cells) [1], 590 nM on PAR2 (HT-29 cells) [2], above 2000 nM in experiment [3] (Homo sapiens) and above 2000 nM in experiment [4] (Homo sapiens).

Regarding `CC1(C)CCC(c2cc(C(C)(C)C)c3oc(C(=O)N4CCN(c5nc(C(=O)O)co5)CC4(C)C)cc3n2)CC1` [Example I-450], the IC50 is 0.4 nM on PAR2 (HT-29 cells) [1], 0.8 nM at PAR2 (HT-29 cells) [2], above 1010 nM in experiment [3] (Homo sapiens) and above 1010 nM in experiment [4] (Homo sapiens).

Regarding `CC1(C)CCC(c2cc(C(C)(C)C)c3oc(C(=O)N4CCN(c5cnc(C(=O)O)cn5)CC4(C)C)cc3n2)CC1` [Example I-451], the 50% inhibitory concentration (IC50) on PAR2 (HT-29 cells) [1] is 6.7 nM; at PAR2 (HT-29 cells) [2], 5.9 nM; in experiment [3] (Homo sapiens), above 2000 nM; in experiment [4] (Homo sapiens), above 2000 nM.

In the case of `CC(C)(C)c1cc(-c2ccc(Cl)cc2)nc2cc(C(=O)N3CCN(c4cnc(C(=O)O)cn4)CC3(C)C)oc12` [Example I-452], the IC50 on PAR2 (HT-29 cells) [1] is 8.9 nM; at PAR2 (HT-29 cells) [2], 6.6 nM; in experiment [3] (Homo sapiens), above 2000 nM; in experiment [4] (Homo sapiens), above 2000 nM.

`CC(C)(C)c1cc(-c2ccc(F)cc2)nc2cc(C(=O)N3CCN(N4CCC(=O)NCC4(C)C)CC3(C)C)oc12` [Example I-453]: the IC50 is 450 nM at PAR2 (HT-29 cells) [1], 660 nM at PAR2 (HT-29 cells) [2], above 2000 nM in experiment [3] (Homo sapiens) and above 2000 nM in experiment [4] (Homo sapiens).

Turning to `CC(C)(C)c1cc(-c2ccc(F)cc2)nc2cc(C(=O)N3CCN(N4CCNC(=O)CC4(C)C)CC3(C)C)oc12` [Example I-454], the IC50 at PAR2 (HT-29 cells) [1] is 41 nM; at PAR2 (HT-29 cells) [2], 67 nM; in experiment [3] (Homo sapiens), above 2000 nM; in experiment [4] (Homo sapiens), above 2000 nM.

As for `CC1(C)CCC(c2cc(C(C)(C)C)c3oc(C(=O)N4CCN(c5nccc(C(=O)O)n5)CC4(C)C)cc3n2)CC1` [Example I-455], the 50% inhibitory concentration (IC50) at PAR2 (HT-29 cells) [1] came out at 1.2 nM; on PAR2 (HT-29 cells) [2], 2.4 nM; in experiment [3] (Homo sapiens) it was 450 nM; in experiment [4] (Homo sapiens), 415 nM.

Take `CC(C)(C)c1cc(-c2ccc(Cl)c(F)c2)nc2cc(C(=O)N3CCN(c4cnc(C(=O)O)cn4)CC3(C)C)oc12` [Example I-456]: the IC50 at PAR2 (HT-29 cells) [1] is 3.2 nM; at PAR2 (HT-29 cells) [2], 4.2 nM; in experiment [3] (Homo sapiens), above 2000 nM; in experiment [4] (Homo sapiens), above 2000 nM.
